# Reference: ChEMBL document CHEMBL1139343, “Pharmacophore guided discovery of small-molecule human apurinic/apyrimidinic endonuclease 1 inhibitors” (J Med Chem, 2009)
# Molecular target: DNA repair nuclease/redox regulator APEX1 (Homo sapiens, UniProt P27695)
# Assay: Inhibition of purified human recombinant APE1 expressed in Escherichia coli M15 cells
# Chain of DNA repair nuclease/redox regulator APEX1 (P27695 whole entry): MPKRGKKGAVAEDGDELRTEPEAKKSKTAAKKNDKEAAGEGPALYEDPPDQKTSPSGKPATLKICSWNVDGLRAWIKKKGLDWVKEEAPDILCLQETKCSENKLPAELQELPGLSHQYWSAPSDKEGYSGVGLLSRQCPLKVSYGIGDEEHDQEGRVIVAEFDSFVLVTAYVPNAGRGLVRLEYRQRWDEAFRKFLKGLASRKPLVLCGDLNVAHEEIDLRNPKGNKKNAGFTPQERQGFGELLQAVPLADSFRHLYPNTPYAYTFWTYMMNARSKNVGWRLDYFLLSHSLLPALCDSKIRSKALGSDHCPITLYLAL
row,SMILES,IC50
1,CC1CCc2c(sc3nc(C4CC4)n4c(SCC(=O)Nc5nccs5)nnc4c23)C1 (stereo not drawn),> 100 µM
2,Cc1oc(C(=O)O)cc1CSCC(C)C(=O)O (stereo not drawn),22 µM
3,COC(=O)C1C(=O)c2c([nH]c(C(=O)OC3CCCCC3)c2C)CC1C (stereo not drawn),> 100 µM
4,O=[N+]([O-])c1ccccc1-c1nnc(CSc2nc(-c3ccccc3O)n[nH]2)o1,> 100 µM
5,O=S(=O)(O)CCCSc1sc2ccccc2[n+]1CCCS(=O)(=O)O,> 100 µM
6,CC1(C)C(C(=O)O)N2C(=O)C(NC(=O)C(C(=O)O)c3ccccc3)C2[S+]1[O-] (stereo not drawn),> 100 µM
7,O=C(O)CCC1(CCC(=O)O)CCCCC1=O,> 100 µM
8,N#C/C(=C\c1ccc(-c2ccccc2[N+](=O)[O-])o1)S(=O)(=O)c1ccccc1,> 100 µM
9,COc1cc(-c2nnn[nH]2)ccc1OCC(=O)O,> 100 µM
10,C(=C\CSc1nnnn1-c1ccccc1)/CSc1nnnn1-c1ccccc1,> 100 µM
11,Cc1ccc(Cn2nnc3c(O)nc(C4CCCN(S(=O)(=O)c5ccccc5)C4)nc32)cc1 (stereo not drawn),> 100 µM
12,CCS(=O)(=O)N1CCN(S(=O)(=O)c2ccc(C(=O)O)cc2)CC1,> 100 µM
13,CCc1nnc(NS(=O)(=O)c2ccc(NC(=O)CCC(=O)O)cc2)s1,80 µM
14,COC(=O)C1C(=O)c2c([nH]c(C(=O)OCC3CCCO3)c2C)CC1C (stereo not drawn),> 100 µM
15,O=S(=O)(Nc1ccc(NS(=O)(=O)c2cccs2)cc1)c1cccs1,> 100 µM
16,CCOc1cc(-n2cnnn2)c(OCC)cc1NC(=O)c1cc2cccc(OC)c2oc1=O,> 100 µM
17,CCNC(=O)c1cc(S(=O)(=O)NCCC(=O)O)c(C)s1,> 100 µM
18,O=C(O)Cn1c(=O)n(CC(=O)O)c2ccccc21,16 µM
19,O=S(=O)(NCc1ccccc1)c1ccc(S(=O)(=O)N(Cc2ccc(Cl)cc2)Cc2ccco2)cc1,> 100 µM
20,Cc1nc(N(CCC(=O)O)CCC(=O)O)sc1C(C)(C)C,60 µM
21,CCN(CC)S(=O)(=O)c1cccc(C(=O)Nc2ccccc2C(=O)O)c1,100 µM
22,Cc1cc(S(=O)(=O)N2CCOCC2)ccc1OCC(=O)O,100 µM
23,Cc1cc(CSCc2cc(C(=O)O)c(C)o2)oc1C(=O)O,6 µM

row,SMILES,IC50
1,C=CCN1C(=S)S/C(=C/C=C2\Sc3ccccc3N2CCCS(=O)(=O)O)C1=S,> 100 µM
2,O=[N+]([O-])c1ccccc1-c1nnc(CSc2nnc(-c3ccccc3O)o2)o1,> 100 µM
3,O=C(O)CCn1c(=S)n(CCC(=O)O)c2ccccc21,15 µM
4,COc1cc(S(=O)(=O)N(Cc2cccnc2)Cc2ccccc2Cl)ccc1-n1cnnn1,> 100 µM
5,CCCS(=O)(=O)N1CCCC(c2nc(-c3ccc(C(C)C)cc3)no2)C1 (stereo not drawn),> 100 µM
6,Cc1ccc(-c2ccc(CCC(=O)O)n2CC(=O)O)cc1,12 µM
7,O=C(O)CN1C(=O)/C(=C2\SC(=S)N(c3ccc(Br)cc3)C2=O)c2ccccc21,6 µM
8,O=C(O)CCC1(CCC(=O)O)c2ccccc2-c2ccccc21,50 µM
9,Cc1ccccc1NC(=O)c1cccc(NC(=O)CCC(=O)O)c1,35 µM
10,O=C(O)CN1C(=O)/C(=C2\SC(=S)N(C(Cc3ccccc3)C(=O)O)C2=O)c2ccccc21 (stereo not drawn),3 µM
11,Cc1cc(C(=O)O)c(CSCc2cc(C(=O)O)c(C)o2)o1,> 100 µM
12,CC(Oc1cc(OC(C)C(=O)O)c2c(c1)oc(=O)c1ccccc12)C(=O)O (stereo not drawn),8 µM
13,O=C(O)c1ccc(NS(=O)(=O)c2cccs2)cc1,> 100 µM
14,CCCCOC(=O)c1ccc(NC(=O)CSc2nnnn2CC)cc1,> 100 µM
15,Cc1cc(NC(=O)CCC(=O)O)ccc1NC(=O)c1cccs1,100 µM
16,O=C(O)CNC(=O)c1cc(=O)[nH]c(=O)[nH]1,> 100 µM
17,CC1([N+](=O)[O-])CN(CCC(=O)O)CN(CCC(=O)O)C1,50 µM
18,O=C(O)c1cccc(NS(=O)(=O)c2cccc3nsnc23)c1,> 100 µM
19,O=C(O)c1ccc(S(=O)(=O)c2ccc(Sc3ccc(C(=O)O)c(C(=O)O)c3)cc2)cc1,6 µM
20,Cc1c(OS(=O)(=O)c2ccccc2)cccc1OS(=O)(=O)c1ccccc1,> 100 µM
21,Cc1oc(C)c(C(=O)NCC(=O)O)c1C(=O)NCC(=O)O,26 µM
22,CCOC(=O)C(=Cc1c[nH]c2ccc(S(=O)(=O)N(C)C)cc12)C(=O)OCC,> 100 µM
23,O=C(O)CCCN1C(=O)/C(=C2/C(=O)N(CC(=O)O)c3ccccc32)SC1=S,12 µM

row,SMILES,IC50
1,Cc1ccc(S(=O)(=O)CCc2nnc(NC(=O)CCc3ccccc3)s2)cc1,> 100 µM
2,O=S(=O)(O)c1ccccc1Nc1ccnc(Nc2ccccc2S(=O)(=O)O)n1,> 100 µM
3,O=C(O)c1cccc(S(=O)(=O)N2CCS(=O)(=O)CC2)c1,80 µM
4,O=C(CN(Cc1cccs1)S(=O)(=O)c1ccc(S(=O)(=O)NC2CC2)cc1)Nc1ccccc1,> 100 µM
5,O=C(O)CC[S+]([O-])CCC(=O)O,40 µM
6,O=C(O)CN1C(=O)/C(=C2\SC(=S)N(NC(=O)c3ccccc3O)C2=O)c2ccccc21,11 µM
7,O=C(O)CCCNc1n[nH]c(=O)[nH]c1=O,> 100 µM
8,Cc1cc(S(=O)(=O)N2CCOCC2)ccc1OCC(=O)N1CCCC1,> 100 µM
9,O=C(O)CCNc1ccc(Br)cc1C(=O)O,32 µM
10,O=C(O)CC1S/C(=N/N=C/c2ccco2)NC1=O (stereo not drawn),> 100 µM
11,Cc1ccc(-c2noc(CNC(=O)CN(C)S(=O)(=O)c3ccc4ccccc4c3)n2)cc1,> 100 µM
12,Cc1ccc(-c2nnc3c4ccccc4c(C)nn23)cc1S(=O)(=O)N1CCOCC1,> 100 µM
13,Cc1nc(NC(=O)c2ccco2)sc1C(=O)O,> 100 µM
14,COC(=O)CSc1nnc(-c2ccc(NS(C)(=O)=O)cc2)n1C,> 100 µM
15,COc1ccc(S(=O)(=O)N2CCC(C(=O)O)CC2)cc1C(=O)O,30 µM
16,CN(NC(=O)COc1ccccc1)C1=NS(=O)(=O)c2ccccc21,> 100 µM
17,O=C(O)c1ccc(Oc2ccc(S(=O)(=O)c3ccc(C(=O)O)c(C(=O)O)c3)cc2)cc1,10 µM
18,COc1ccc(/C=C/C(=O)O)cc1S(=O)(=O)NCc1cccnc1,> 100 µM
19,CCN(Cc1ccccc1)S(=O)(=O)c1ccc(S(=O)(=O)NC2CCC(C)CC2)cc1 (stereo not drawn),> 100 µM
20,O=C(CCc1nc(-c2ccc(Cl)cc2)no1)Nc1nnn[nH]1,> 100 µM
21,CCN(c1ccc(C(O)(C(=O)OC)C(F)(F)F)cc1)S(=O)(=O)c1ccc(C)cc1 (stereo not drawn),> 100 µM
22,C=CCn1c(Cc2ccccc2)nnc1SCC(=O)Nc1nnc(C)s1,> 100 µM
23,CC(C)(C)NS(=O)(=O)c1ccc2oc3ccc(S(=O)(=O)NC(C)(C)C)cc3c2c1,> 100 µM

row,SMILES,IC50
1,O=C(Nc1ccccc1O)c1cc(S(=O)(=O)N2CCCCC2)ccc1Cl,> 100 µM
2,Cc1ccc(S(=O)(=O)Nc2ccc(NC(=O)CN3CCCCC3)c(Cl)c2)cc1,> 100 µM
3,CCC(=O)N(Cc1ccc(S(N)(=O)=O)cc1)C1CC(=O)N(c2ccccc2)C1=O (stereo not drawn),> 100 µM
4,O=C(O)CNS(=O)(=O)c1ccc2c(c1)C(=O)c1cc(S(=O)(=O)NCC(=O)O)ccc1-2,50 µM
5,Cn1c(CCNS(=O)(=O)c2ccccc2)nnc1SCc1cccnc1,> 100 µM
6,O=C(O)CC(CC(=O)Nc1nnn[nH]1)c1ccccc1 (stereo not drawn),30 µM
7,O=C(O)CCC(=O)NC(Cc1ccccc1)C(=O)O (stereo not drawn),40 µM
8,O=C(O)CCc1ccc(-c2cccs2)n1CC(=O)O,9 µM
9,CCn1c(SCC(=O)c2cccs2)nnc1-c1ccc(NS(C)(=O)=O)cc1,> 100 µM
10,O=C(O)CSc1cc(-c2ccccc2)nc(SCC(=O)O)n1,19 µM
11,O=C(Cn1cc(C(=O)c2ccco2)c2ccccc21)NCc1cccnc1,> 100 µM
12,O=C(O)CSc1ccc(C(=O)O)cc1[N+](=O)[O-],100 µM
13,O=S(=O)(c1ccccc1)N1CCCC(c2nc(-c3ccc(F)cc3)no2)C1 (stereo not drawn),> 100 µM
14,COc1ccc(NS(=O)(=O)c2ccc(NC(=O)c3ccccc3C(=O)O)cc2)nn1,> 100 µM
15,O=C(O)CSc1cccc(C(=O)O)c1,33 µM
16,O=C(O)c1cccc(NC(=O)C2CCCCC2C(=O)O)c1 (stereo not drawn),55 µM
17,O=C(O)CSC1CCS(=O)(=O)C1 (stereo not drawn),> 100 µM
18,Cc1cc(S(=O)(=O)N2CCc3ccccc32)ccc1OCC(=O)NCc1ccccn1,> 100 µM
19,Cc1ccc(OCc2ccoc2C(=O)O)cc1C,11 µM
20,O=C(Nc1nnc(CCS(=O)(=O)c2ccc3ccccc3c2)s1)c1ccccc1Cl,> 100 µM
21,C=CCN1C(=O)C(Cc2ccccc2)S/C1=N/c1ccc(C(=O)O)cc1 (stereo not drawn),100 µM
22,Cc1oc(C(=O)O)cc1CSCc1cc(C(=O)O)oc1C,40 µM
23,Cc1ccc(S(=O)(=O)CCc2nnc(NC(=O)CC3CC4CCC3C4)s2)cc1 (stereo not drawn),> 100 µM

row,SMILES,IC50
1,CCc1cc2c(=O)c(-c3nc4ccccc4s3)c(C)oc2cc1OS(C)(=O)=O,> 100 µM
2,CCNC(=O)c1cc(S(=O)(=O)NCc2ccc(C(=O)O)cc2)c(C)s1,> 100 µM
3,C=CCSc1nnc(-c2ccc(NS(C)(=O)=O)cc2)n1C,> 100 µM
4,C/C(CCc1ccc2c(c1)OCO2)=N\N=C1/NC(=O)CC(C(=O)O)S1 (stereo not drawn),50 µM
5,CC(C)c1nnc(NC(=O)C2CCCN2S(=O)(=O)c2ccc(F)cc2)s1 (stereo not drawn),> 100 µM
6,CCOc1cc(S(=O)(=O)NCc2ccc3c(c2)OCO3)c(OCC)cc1-n1cnnn1,> 100 µM
7,CS(=O)(=O)NCc1nnc(SCC(=O)N2CCCCCC2)n1-c1ccc(F)cc1,> 100 µM
8,CN(c1ccc(C(=O)O)cc1)S(=O)(=O)c1cccs1,> 100 µM
9,COc1ccc(N(CC(=O)NC2CCCC2)C(=O)C2CSC(=O)C2)cc1 (stereo not drawn),> 100 µM
10,O=S(=O)(O)CC(O)CSc1nc2ccccc2s1 (stereo not drawn),100 µM
11,O=C(CN1C(=O)c2ccccc2S1(=O)=O)Nc1ccc(Cl)c(C(=O)O)c1,> 100 µM
12,CS(=O)(=O)Nc1nc(CC(=O)O)cs1,> 100 µM
13,CCn1c(SCCN2CCCC2)nnc1C1CCCN(S(C)(=O)=O)C1 (stereo not drawn),> 100 µM
14,O=C(O)CCn1c(=O)oc2cc(S(=O)(=O)O)ccc21,80 µM
15,O=C(O)CCc1nc2cc(C(=O)O)ccc2[nH]1,80 µM
16,O=C(Nc1cc(S(=O)(=O)O)cc2cc(S(=O)(=O)O)cc(O)c12)c1ccccc1,27 µM
17,CCc1nnc(NC(=O)c2cc(S(=O)(=O)N(CC)CC)ccc2Cl)s1,> 100 µM
18,COC(=O)COc1ccc(S(=O)(=O)N2CCCCC2)cc1C,> 100 µM
19,O=C(O)CCS(=O)(=O)c1cccc2c(S(=O)(=O)CCC(=O)O)cccc12,35 µM
20,CCS(=O)(=O)N1CCCC(c2nc(O)c3nnn(Cc4ccccc4)c3n2)C1 (stereo not drawn),> 100 µM
21,Cc1nc2ccc(C(=O)O)cc2c(O)c1CCC(=O)O,20 µM
